Entries after “also recorded” stand apart in the source; their conditions may differ.
Legend:
PPARγ mRNA = test: Relative expression of PPARγ mRNA in the left ventricular myocardium (RtPCR); type: in vivo, mouse; conditions: αMHC^719/+ mice, oral rosiglitazone, 6 weeks, compared to wild-type level
Experimental: FIG. 7 Relative expression of PPARγ mRNA in the left ventricular myocardium of untreated HCM mice and HCM mice (αMHC^719/+) treated with N-acetylcysteine (NAC) or rosiglitazone (Rosi) compared to wild-type mice (WT) after 6 weeks; ***: p<0.001.
RNA isolation was carried out by means of the peqGOLD Total RNA Kit (Peqlab) from the left ventricular myocardium according to the manufacturer's instructions. First-strand cDNA was synthesized from 500 ng of total RNA, which is reverse-transcribed (Reverse Transcription Kit, Invitrogen) with random hexamers (TIB Molbiol). RtPCR analysis is carried out with Perfecta SYBR Green fast Mix (VWR, Germany) in the QIAGEN Rotor-Gene Q (Corbett Rotor-Gene 6000). Quantification is done by means of […] calculation and randomization test^49,50.

[1] = system: αMHC^719/+ HCM mouse model; test: Preclinical αMHC^719/+ HCM mouse model, overall summary of results; type: in vivo; conditions: oral administration in the αMHC^719/+ HCM mouse model
Experimental: The examinations were carried out on an established HCM mouse model, in which an arginine-to-tryptophan mutation at position 719 of the heavy chain of the cardiac mouse alpha-myosin gene was effected by homologous recombination (referred to as αMHC^719/+)^38. Such genetically modified mice increasingly develop the typical pathognomonic disease characteristics of hypertrophic cardiomyopathy such as myocardial hypertrophy and fibrosis with increasing age. The phenotype of this genetically generated HCM mouse model thus simulates the phenotype of HCM patients affected^36,37,38. The manifestation of the disease can be accelerated by subcutaneous administration of the calcineurin inhibitor cyclosporin A (CsA)^9.
Between their 6th and 12th postnatal week, all mice were injected subcutaneously with cyclosporin A (CsA) to accelerate hypertrophic remodeling in the myocardium in the HCM mouse model^9. Half of the mice were treated with the PPARγ agonists rosiglitazone and pioglitazone from the group of thiazolidinediones between their 6th and 12th postnatal week. In their 12th postnatal week, they were subjected to in vivo transthoracic echocardiography. The animals were then euthanized for ex vivo examination (organ removal, histopathology, and determination of radical oxygen species, of mRNA and protein expression in the tissue) (see FIG. 10).D

HCM mice (αMHC^719/+) [2] = test: Echocardiography: maximum left ventricular wall thickness, stereoisomers of pioglitazone (experimental setup C); type: in vivo, mouse; conditions: αMHC^719/+ mice, 10 mg/kg/day orally, 6 weeks, vs untreated αMHC^719/+
Source text: This experimental protocol examined the action of the two stereoisomers of a thiazolidinedione (pioglitazone) ((S)- and (R)-stereoisomers) in the same hypertrophic cardiomyopathy mouse model as described for experimental setup A. The experimental setup is thus similar to the experimental setup according to A. The animals were genotyped in their 3rd postnatal week (as also described in accordance with experimental setup A). Between their 6th and 12th postnatal week, all 65 mice were orally administered a daily dose of 30 mg/kg cyclosporin A (CsA) which was added to their pellet diet to accelerate hypertrophic remodeling in the myocardium in the HCM mouse model^56. Between their 6th and 12th postnatal week, (a) 13 WT and 9 MHC^719/+ mice were in addition treated orally with the (R)-stereoisomer of a thiazolidinedione (pioglitazone) (10 mg/kg/day) or (b) 12 WT and 11 αMHC^719/+ mice were in addition treated orally with the (S)-stereoisomer (pioglitazone) (10 mg/kg/day). In their 12th postnatal week, they were subjected to in vivo transthoracic echocardiography. The animals were then euthanized for ex vivo examination (organ removal and histopathology) (see FIG. 11). As shown in experimental setup A, in vivo phenotyping of the left ventricular wall thickness and ventricular function was done by means of transthoracic echocardiography, as described above^40,41,39. Examination by echocardiography was done as follows—specifically: removal of the mice from the cage, weighing and visual assessment of the animals, performance of echocardiography according to standardized, published standard protocols in conscious animals after 30 minutes of observation^39,41,37,40. In order to quantify fibrosis, the removed hearts were fixed in 4% of paraformaldehyde, dehydrated, and placed in paraffin, as described above^37,42,43. […] Semi-quantification of myocardial fibrosis was done independently of one another by two blinded examiners. For this purpose, the percentage of cardiac muscle portions stained blue with Masson's trichrome in relation to the overall stained cardiac muscle was calculated. […]

HCM mice (αMHC^719/+) [3] = test: Semi-quantitative myocardial fibrosis score on Masson's trichrome sections, stereoisomers of pioglitazone (experimental setup C); type: in vivo, mouse; conditions: αMHC^719/+ mice, 10 mg/kg/day orally, 6 weeks, vs untreated αMHC^719/+
Experimental: FIG. 13 Determination of myocardial fibrosis using histopathological sections of myocardium. The manifestation of myocardial fibrosis (blue-colored in the Masson's trichrome-stained histological sections) was determined semi-quantitatively by two blinded examiners in each case independently of one another. The scores assigned were 0 to 3:0: no fibrosis, 1: mild fibrosis; 2: moderate fibrosis, 3: severe fibrosis; 0.5: no to mild fibrosis, 1.5: mild to moderate fibrosis; 2.5: moderate to severe fibrosis, 3: severe fibrosis. The animals were genotyped in their 3rd postnatal week (as also described in accordance with experimental setup A). Between their 6th and 12th postnatal week, all 65 mice were orally administered a daily dose of 30 mg/kg cyclosporin A (CsA) which was added to their pellet diet to accelerate hypertrophic remodeling in the myocardium in the HCM mouse model^56. Between their 6th and 12th postnatal week, (a) 13 WT and 9 MHC^719/+ mice were in addition treated orally with the (R)-stereoisomer of a thiazolidinedione (pioglitazone) (10 mg/kg/day) or (b) 12 WT and 11 αMHC^719/+ mice were in addition treated orally with the (S)-stereoisomer (pioglitazone) (10 mg/kg/day). In their 12th postnatal week, they were subjected to in vivo transthoracic echocardiography. The animals were then euthanized for ex vivo examination (organ removal and histopathology) (see FIG. 11). Examination by echocardiography was done as follows—specifically: removal of the mice from the cage, weighing and visual assessment of the animals, performance of echocardiography according to standardized, published standard protocols in conscious animals after 30 minutes of observation^39,41,37,40. In order to quantify fibrosis, the removed hearts were fixed in 4% of paraformaldehyde, dehydrated, and placed in paraffin, as described above^37,42,43. 5-μm sections were stained with Masson's trichrome. Semi-quantification of myocardial fibrosis was done independently of one another by two blinded examiners. For this purpose, the percentage of cardiac muscle portions stained blue with Masson's trichrome in relation to the overall stained cardiac muscle was calculated. Perivascular and intramurine structures, the endocardium, and trabeculas were excluded in the calculation of the percentage of fibrosis. The classification was “no fibrosis,” “mild fibrosis,” “moderate fibrosis,” and “severe fibrosis.”

[4] = (R)-Pio p<0.001, (S)-Pio p=0.072
[5] = (R)-Pio p=0.01, (S)-Pio p=0.916

Structure (SMILES)	myocardial mRNA expression of PPARγ (PPARγ mRNA)	changes in biophysical properties in the heart muscle cell and onset of myocardial hypertrophy and fibrosis [1]	development of myocardial hypertrophy (maximum thickness of the wall of the left ventricle) (HCM mice (αMHC^719/+) [2]; [4])	development of myocardial hypertrophy (maximum thickness of the wall of the left ventricle) (HCM mice (αMHC^719/+) [2]; (R)-Pio p<0.001, (S)-Pio p=0.072, listed as (R)-stereoisomer of a thiazolidinedione)	development of myocardial fibrosis (semi-quantitative score 0 to 3) (HCM mice (αMHC^719/+) [3]; [5])	development of myocardial fibrosis (semi-quantitative score 0 to 3) (HCM mice (αMHC^719/+) [3]; (R)-Pio p=0.01, (S)-Pio p=0.916, listed as (R)-stereoisomer of a thiazolidinedione)	development of myocardial fibrosis (semi-quantitative score 0 to 3) (HCM mice (αMHC^719/+) [3]; (R)-Pio p=0.01, (S)-Pio p=0.916, listed as S-stereoisomer of pioglitazone)
CN(CCOc1ccc(CC2SC(=O)NC2=O)cc1)c1ccccn1 (racemic) [rosiglitazone, (RS)-5-({4-[2-(methyl-2-pyridinylamino)ethoxy]phenyl}methyl)-2,4-thiazolidinedione]	increases the myocardial mRNA expression of PPARγ again almost completely to wild-type level	largely prevents					
CCc1ccc(CCOc2ccc(C[C@H]3SC(=O)NC3=O)cc2)nc1 (single isomer, unassigned) [(R)-stereoisomer of pioglitazone]			significantly inhibited	significantly lessened	significantly inhibited	significantly lessened	
CCc1ccc(CCOc2ccc(C[C@@H]3SC(=O)NC3=O)cc2)nc1 (single isomer, unassigned) [(S)-stereoisomer of pioglitazone]			tends to result in lessened hypertrophy; also recorded: less pronounced		not in a reduction of myocardial fibrosis		cannot be seen

Reference: patent US20240180887A1, “USE OF PPAR(gamma) AGONISTS OR MPC INHIBITORS FOR TREATING PRIMARY, INNATE DISEASES OF THE CARDIAC MUSCLE (CARDIOMYOPATHIES)” (PREVENTAGE THERAPEUTICS GMBH, priority 2021, published 2024)
